We go through nine compounds from patent US10548318B2, “N-(tetrazol-5-yl)- and N-(triazol-5-yl)arylcarboxamide derivatives with herbicidal action” (Bayer CropScience Aktiengesellschaft, priority 2015, dated 2020).

What all share (assay type): in vivo
One assay has as its system Amaranthus retroflexus. The assay is described as follows: Pre-emergence herbicidal action against harmful plants. The conditions noted are these: 504 h, application rate 320 g/ha, visual scoring after 3 weeks vs untreated controls, read-out: herbicidal activity in percent against Amaranthus retroflexus. An excerpt:
(§1) Seeds of monocotyledonous and dicotyledonous weed plants and crop plants are laid out in wood-fiber pots in sandy loam and covered with soil. The compounds of the invention, formulated in the form of wettable powders (WP) or as emulsion concentrates (EC), are then applied to the surface of the covering soil in the form of an aqueous suspension or emulsion at a water application rate equating to 600 to 800 I/ha, with addition of 0.2% wetting agent. After the treatment, the pots are placed in a greenhouse and kept under good growth conditions for the trial plants. The damage to the test plants is scored visually after a test period of 3 weeks by comparison with untreated controls (herbicidal activity in percent (%): 100% activity=the plants have died, 0% activity=like control plants). Here, for example, the compounds Nos. 1-384, 1-390, 3-384, 5-384, 19-384, 9-390, 21-384, 23-384 and 28-390, at an application rate of 320 g/ha, each show an activity of at least 80% against Stellaria media and Amaranthus retroflexus.

In assay [1] the test system is Stellaria media. Described as above. The conditions noted are these: 504 h, application rate 320 g/ha, visual scoring after 3 weeks vs untreated controls, read-out: herbicidal activity in percent against Stellaria media.
Description: as §1

Assay [2] concerns Stellaria media. Description: Post-emergence herbicidal action against harmful plants. Particulars: 504 h, application rate 80 g/ha, visual assessment after about 3 weeks vs untreated controls, read-out: herbicidal action in percent against Stellaria media. On the procedure: (§2) Seeds of monocotyledonous and dicotyledonous weed and crop plants are laid out in sandy loam soil in wood-fiber pots, covered with soil and cultivated in a greenhouse under good growth conditions. 2 to 3 weeks after sowing, the test plants are treated at the one-leaf stage. The compounds of the invention, formulated in the form of wettable powders (WP) or as emulsion concentrates (EC), are then sprayed onto the green parts of the plants in the form of an aqueous suspension or emulsion at a water application rate equating to 600 to 800 I/ha, with addition of 0.2% wetting agent. After the test plants have been left to stand in the greenhouse under optimal growth conditions for about 3 weeks, the action of the preparations is assessed visually in comparison to untreated controls (herbicidal action in percent (%): 100% activity=the plants have died, 0% activity=like control plants). Here, for example, the compounds Nos. 1-384, 1-390, 3-384, 5-384, 19-384, 9-390, 21-384, 23-384, 28-390 and 32-384, at an application rate of 80 g/ha, each show an activity of at least 80% against Stellaria media and Veronica persica.

For a further assay, the system named is Veronica persica. Described as above. Particulars: 504 h, application rate 80 g/ha, visual assessment after about 3 weeks vs untreated controls, read-out: herbicidal action in percent against Veronica persica. How it is done:
as §2

Assay [3] relates to Polygonum convolvulus (POLCO). Description: Comparative experiment in pre-emergence. Particulars: dosage 320 g/ha.
Description: as §1
For comparative purposes, the herbicidal activity of some compounds according to the invention and the most structurally similar compounds known from the prior art were tested.

For `CSc1c(C(F)(F)F)ccc(C(=O)N=c2n(C)nnn2C(C)OC(=O)OC2CCCCC2)c1Cl` (stereo not shown) [No. 5-384, 1-(5-{[2-chloro-3-(methylsulfanyl)-4-(trifluoromethyl)benzoyl]imino}-4-methyl-4,5-dihydro-1H-tetrazol-1-yl)ethyl cyclohexyl carbonate], the pest or weed control at 320 g/ha with Amaranthus retroflexus and with Stellaria media [1] was no less than 80% in each case. Moreover, the pest or weed control at 80 g/ha with Stellaria media [2] and in the assay on Veronica persica was no less than 80% each time.

On to `CCOC(=O)OC(C)n1nnn(C)c1=NC(=O)c1ccc(C(F)(F)F)c(SC)c1Cl` (stereo not shown) [No. 1-384, 1-(5-{[2-chloro-3-(methylsulfanyl)-4-(trifluoromethyl)benzoyl]imino}-4-methyl-4,5-dihydro-1H-tetrazol-1-yl)ethyl ethyl carbonate], for which the pest or weed control at 320 g/ha with Amaranthus retroflexus and in the assay on Stellaria media [1] was no less than 80% each time. In addition, the pest or weed control at 80 g/ha in the assay on Stellaria media [2] and in the assay on Veronica persica was no less than 80% each time.

On to `CCOC(=O)OC(C)OC(=Nc1nnnn1C)c1ccc(C)c(S(C)(=O)=O)c1Cl` (stereo not shown) [No. 19-390, 1-[(ethoxycarbonyl)oxy]ethyl 2-chloro-4-methyl-3-(methylsulfonyl)-N-(1-methyl-1H-tetrazol-5-yl)benzenecarboximidate], for which the “Herbicidal activity against POLCO” value in assay [3] was 100%.

Turning to `COC(=O)OC(C)n1nnn(C)c1=NC(=O)c1ccc(C(F)(F)F)c(SC)c1Cl` (stereo not shown) [No. 3-384, 1-(5-{[2-chloro-3-(methylsulfanyl)-4-(trifluoromethyl)benzoyl]imino}-4-methyl-4,5-dihydro-1H-tetrazol-1-yl)ethyl methyl carbonate], the pest or weed control at 320 g/ha with Amaranthus retroflexus and in the assay with Stellaria media [1] was no less than 80% in each case. Moreover, the pest or weed control at 80 g/ha in the assay with Stellaria media [2] and in the assay with Veronica persica was no less than 80% throughout.

Take `CCOC(=O)OC(C)n1nnn(C)c1=NC(=O)c1ccc(C)c(S(C)(=O)=O)c1Cl` (stereo not shown) [No. 1-390, 1-(5-{[2-chloro-4-methyl-3-(methylsulfonyl)benzoyl]imino}-4-methyl-4,5-dihydro-1H-tetrazol-1-yl)ethyl ethyl carbonate]: the pest or weed control at 320 g/ha in the assay on Amaranthus retroflexus and in the assay with Stellaria media [1] was no less than 80% each time. Besides, the pest or weed control at 80 g/ha in the assay with Stellaria media [2] and in the assay with Veronica persica was no less than 80% throughout. Also, the “Herbicidal activity against POLCO” value in assay [3] was found to be 100%.

In the case of `CCOC(=O)OC(C)N(C(=O)c1ccc(C)c(S(C)(=O)=O)c1Cl)c1nnnn1C` (stereo not shown) [No. 28-390, 1-{[2-chloro-4-methyl-3-(methylsulfonyl)benzoyl](1-methyl-1H-tetrazol-5-yl)amino}ethyl ethyl carbonate], the pest or weed control at 320 g/ha with Amaranthus retroflexus and with Stellaria media [1] was no less than 80% each time. In addition, the pest or weed control at 80 g/ha in the assay on Stellaria media [2] and in the assay with Veronica persica was no less than 80% throughout. For the same compound, the “Herbicidal activity against POLCO” value in assay [3] amounted to 90%.

On to `COC(=O)OC(C)OC(=Nc1nnnn1C)c1ccc(C(F)(F)F)c(SC)c1Cl` (stereo not shown) [No. 21-384, 1-[(Methoxycarbonyl)oxy]ethyl 2-chloro-3-(methylsulfanyl)-N-(1-methyl-1H-tetrazol-5-yl)-4-(trifluoromethyl)benzenecarboximidate], for which the pest or weed control at 320 g/ha in the assay with Amaranthus retroflexus and with Stellaria media [1] was no less than 80% in each case. The pest or weed control at 80 g/ha in the assay on Stellaria media [2] and in the assay with Veronica persica was no less than 80% in each case. In addition, the “Herbicidal activity against POLCO” value in assay [3] was determined as 100%.

`CSc1c(C(F)(F)F)ccc(C(=Nc2nnnn2C)OC(C)OC(=O)OC2CCCCC2)c1Cl` (stereo not shown) [No. 23-384, 1-{[(cyclohexyloxy)carbonyl]oxy}ethyl 2-chloro-3-(methylsulfanyl)-N-(1-methyl-1H-tetrazol-5-yl)-4-(trifluoromethyl)benzenecarboximidate]: the pest or weed control at 320 g/ha in the assay with Amaranthus retroflexus and in the assay on Stellaria media [1] was no less than 80% throughout. Besides, the pest or weed control at 80 g/ha in the assay with Stellaria media [2] and in the assay on Veronica persica was no less than 80% each time. Besides, the “Herbicidal activity against POLCO” value in assay [3] was found to be 90%.

As to `CCOC(=O)OC(C)OC(=Nc1nnnn1C)c1ccc(C(F)(F)F)c(SC)c1Cl` (stereo not shown) [No. 19-384, 1-[(ethoxycarbonyl)oxy]ethyl 2-chloro-3-(methylsulfanyl)-N-(1-methyl-1H-tetrazol-5-yl)-4-(trifluoromethyl)benzenecarboximidate], the pest or weed control at 320 g/ha with Amaranthus retroflexus and in the assay with Stellaria media [1] was no less than 80% in each case. Besides, the pest or weed control at 80 g/ha with Stellaria media [2] and in the assay on Veronica persica was no less than 80% each time.
